Results as given in patent publication US20220273628A1, “EFFECTS OF LYSERGIC ACID DIETHYLAMIDE (LSD) AND OF LSD ANALOGS TO ASSIST PSY[…] G[…] DISORDER OR OTHER ANXIETY NOT RELATED TO LIFE-T[…]” (Universitätsspital Basel, priority 2021, published 2022).
“Also recorded” adds a separate entry of the source.

Assays:
[1] = test system: patients with anxiety disorder without somatic illness; assay: Randomized, double-blind, placebo-controlled phase II cross-over study of LSD: ratings of anxiety, depression and psychological distress; format: in vivo, human
Experimental: Specifically, in patients with generalized anxiety disorder, LSD or placebo was administered in double-blind manner in two sessions separated by 6 weeks and anxiety, depression and psychological distress were assessed between sessions, 2, 8, and 16 weeks after the second session. Then patients who received LSD crossed over to placebo and vice versa.
The examples study used a double-blind cross-over design with two treatment sequences each lasting 24 weeks (LSD vs. placebo-assisted psychotherapy) and separated by a […] between-sequence period. Order was counter-balanced and random. Each participant served as its own control over the 52-weeks total study duration. Treatment effects are also compared between subjects for the first 24 week study period before the cross-over.
Each of the four LSD/Placebo sessions lasted 12 hours from 8 AM to 8 PM. Sessions took place in a quiet room at the Ambulatory Study Center of the University Hospital Basel (Basel center) or in the private practice office of Dr. P. Gasser (Solothurn center). At the beginning of the session, current mood and mental state were discussed and a urine drug screen was taken and any AEs since the last visit were recorded. Any open questions or concerns were addressed by the investigator. The participants were advised to lie in a bed or sit comfortably on a chair. Other than going to the bathroom, the participants remained in the treatment room for the entire 12-hour experimental session and were supervised constantly up to 8-12 hours after LSD/placebo administration depending on the participant's response and as needed. The subjective effects of LSD at the dose used in this study were expected to last 8-12 hours (Gasser et al., 2014; Holze et al., 2021; Schmid et al., 2015). […] During the LSD/placebo effect, the participants were instructed to focus their awareness inward. Subjects were encouraged to wear eye shades during the first hours (or the light was dimmed) as well as to listen to music and discussions/talking much with the investigator were discouraged. Subjects were allowed to remain mostly undisturbed with brief physical contacts every two hours when heart rate and blood pressure were measured. At the end of the sessions, 10-12 hours after LSD/placebo administration, the acute subjective peak effects were retrospectively rated by the participants using the 5D-ASC, SCQ, AMRS, and VASs and the experience was discussed. Ten-twelve hours after LSD/placebo administration the participants were allowed to return to their home with company and supervision provided by the partner, a relative, or a friend. If supervision was not available or if effects persisted, the night was spent at the study site.
The STAI is a widely used self-report instrument for assessing anxiety in adults. It includes separate measures of state and trait anxiety (Spielberger et al., 1983). The STAI evaluates the essential qualities of feelings of apprehension, tension, nervousness, and worry. The STAI differentiates between the temporary condition of state anxiety and the more general and long-standing quality of trait anxiety. The STAI state anxiety subscale asks for feelings at the moment of filling out the questionnaire, and the STAI trait anxiety subscale ask subjects to indicate how they generally view themselves. For both subscales, scores from 20 to 39 represent mild anxiety, and scores from 40 to 59 indicated moderate anxiety, whereas scores from 60 to 80 indicated severe anxiety. Both the state and trait STAI are commonly used as outcome measures in studies in patients with anxiety disorder (Fisher et al., 1999; Laakmann et al., 1998). A global STAI score can be derived by adding up the state and trait anxiety scale scores (range: 40-160 points). Similar to the pilot study both STAI scale scores were used to determine study inclusion at the screening visit (Gasser et al., 2014; Gasser et al., 2015). […]

5-HT2A receptor = 5-HT2A receptor (Homo sapiens, UniProt P28223); details: cited from earlier work
healthy volunteers = details: cited from earlier work
amygdala reactivity = details: fMRI; cited from earlier work
healthy participants = details: in vivo; cited from earlier work
[2] = test system: patients with life-threatening illness and related anxiety; details: cited from earlier work
[3] = drinking solution (water/alcohol) in dark glass vials; cited from earlier work
[4] = between-subjects, after the first session, p=0.04
[5] = between-subjects, week 10 (2 weeks after the second dose), p=0.002
[6] = between-subjects, weeks 16 and 24, did not reach statistical significance
[7] = within-subjects, 2 weeks after the second administration, p=0.003
[8] = within-subjects, after two LSD sessions

5-HT2A receptor, sequence (P28223 whole entry): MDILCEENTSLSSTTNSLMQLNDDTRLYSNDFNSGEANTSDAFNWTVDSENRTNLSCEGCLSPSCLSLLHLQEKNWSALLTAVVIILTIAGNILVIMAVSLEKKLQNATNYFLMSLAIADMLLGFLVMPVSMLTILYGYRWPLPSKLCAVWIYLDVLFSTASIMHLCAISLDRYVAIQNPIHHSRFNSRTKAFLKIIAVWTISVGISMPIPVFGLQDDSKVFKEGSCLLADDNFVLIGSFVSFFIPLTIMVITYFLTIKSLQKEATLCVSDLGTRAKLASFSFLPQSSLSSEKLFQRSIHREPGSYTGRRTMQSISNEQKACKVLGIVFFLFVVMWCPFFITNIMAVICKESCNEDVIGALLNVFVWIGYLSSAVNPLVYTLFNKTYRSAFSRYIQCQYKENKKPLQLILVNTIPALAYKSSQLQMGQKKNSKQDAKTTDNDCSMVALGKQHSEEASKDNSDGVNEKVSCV

CCN(CC)C(=O)[C@@H]1C=C2c3cccc4[nH]cc(c34)C[C@H]2N(C)C1 [LSD, lysergic acid diethylamide]
STAI-S, STAI-T, STAI-G, HDRS, BDI and SCL-90 Global scores compared with baseline ([1]; LSD condition only, 19 patients, 2 weeks after the second treatment session, p=0.006, 0.01, 0.03, 0.02, 0.03): reduced scores on all outcome measures significantly | STAI-S ratings compared with placebo ([1]; between-subjects, first period, week 10 (2 weeks after the second dose), 200 μg per os, p=0.008): significantly reduced | STAI-S ratings compared with placebo ([1]; between-subjects, after the first session, p=0.03): significantly reduced | HDRS scores compared with placebo [1, 4]: already reduced scores | STAI-G ratings compared with placebo [1, 4]: significantly reduced | STAI-T ratings compared with placebo ([1]; between-subjects, week 10 (2 weeks after the second dose), p=0.001): significantly reduced | HDRS scores compared with placebo [1, 5]: significantly reduced | STAI-G ratings compared with placebo [1, 5]: significantly reduced | SCL-90 Global scores compared with placebo ([1]; between-subjects, week 10, p=0.004): significantly reduced | BDI scores compared with placebo ([1]; between-subjects, week 10, p=0.02): significantly reduced | SCL-90 Global compared with placebo ([1]; between-subjects, week 16 and week 24, did not reach statistical significance): remained reduced | STAI-S ratings compared with placebo ([1]; between-subjects, weeks 16 and 24 (8 and 16 weeks after the second dose), did not reach statistical significance): continued to be reduced | STAI-G ratings compared with placebo [1, 6]: continued to be reduced | STAI-T ratings compared with placebo [1, 6]: continued to be reduced | STAI-S symptom score, difference from baseline, compared with placebo ([1]; within-subjects (19 patients), 2 weeks after the second administration, p=0.01): significantly reduced | BDI symptom score, difference from baseline, compared with placebo ([1]; within-subjects, 2 weeks after the second administration, p=0.002): significantly reduced | STAI-G symptom score, difference from baseline, compared with placebo [1, 7]: significantly reduced | STAI-T symptom score, difference from baseline, compared with placebo [1, 7]: significantly reduced | SCL-90 Global symptom score, difference from baseline, compared with placebo ([1]; within-subjects, 2 weeks after the second administration, p=0.004): significantly reduced | HDRS symptom score, difference from baseline, compared with placebo ([1]; within-subjects, 2 weeks after the second administration, p=0.03): significantly reduced | activity at the 5-HT2A receptor (5-HT2A receptor): partial 5-HT2A receptor agonist; also recorded: agonists | optimism and trait openness compared with placebo (healthy volunteers; 75 μg intravenously, at two weeks): increased | blood pressure and heart rate (healthy volunteers; 40-80 μg intravenously, 10 healthy volunteers): slightly elevated | amygdala reactivity to fearful stimuli (amygdala reactivity): decreased | emotional empathy and prosociality (healthy participants): enhancing | recognition of fearful and sad faces (healthy participants): decreasing | STAI anxiety compared with baseline ([2]; 2 months after the two LSD sessions, 200 μg per os): significant decrease | mild affect lability, share of LSD sessions ([2]; in vivo): 14% | mild gait disturbance, share of LSD sessions ([2]; in vivo): 32% | mild-to-moderate emotional distress, share of LSD sessions ([2]; in vivo): 36% | moderate anxiety, share of LSD sessions ([2]; in vivo): 23% | moderately feeling cold, share of LSD sessions ([2]; in vivo): 45% | number of migraine attacks ([2]; two migraine patients): markedly reduced | STAI state anxiety score after LSD (mean±SD) [2, 8]: 41.5±9.7 | STAI trait anxiety score after LSD (mean±SD) [2, 8]: 45.3±10.3 | STAI state anxiety score before LSD (mean±SD) ([2]; within-subjects, baseline): 53.1±13.5 | STAI trait anxiety score before LSD (mean±SD) ([2]; within-subjects, baseline): 53.3±11.3 | decrease in STAI trait anxiety score (mean±SD) ([2]; within-subjects): 8.0±7.7 points | reduction in STAI state anxiety score (mean±SD) ([2]; within-subjects): 11.6±9.5 points | content-uniformity and stability of the formulation [3]: stability of the formulation throughout the entire study period was documented
